Several values for one entry are separate records, joined by “and”; a condition that tells them apart may be missing. Equal values may be shown once. Inconclusive results and toxic doses are left out.
Tested on: BDF1 mice, P388 leukemia ip, median survival T/C
Assay: NCI In Vivo Anticancer Drug Screen. Data for tumor model P388 Leukemia (intraperitoneal) in B6D2F1 (BDF1) mice
Conditions: endpoint: median survival time, higher = longer survival
Procedure, shortened: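 Read-out is survival of treated animals expressed relative to the vehicle group, as a T/C ratio.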

[1] = dose: 100.0 mg/kg/injection, schedule: Q01DX009 (ip), vehicle: Klucel (hydroxypropylcellulose) (HPC)
[2] = dose: 200.0 mg/kg/injection, schedule: Q01DX009 (ip), vehicle: Klucel (hydroxypropylcellulose) (HPC)
[3] = dose: 400.0 mg/kg/injection, schedule: Q01DX009 (ip), vehicle: Klucel (hydroxypropylcellulose) (HPC)
[4] = dose: 6.25 mg/kg/injection, schedule: Q01DX009 (ip), vehicle: saline with Tween-80
[5] = dose: 12.5 mg/kg/injection, schedule: Q04DX003 (ip), vehicle: saline
[6] = dose: 25.0 mg/kg/injection, schedule: Q04DX003 (ip), vehicle: saline
[7] = dose: 50.0 mg/kg/injection, schedule: Q04DX003 (ip), vehicle: saline
[8] = dose: 25.0 mg/kg/injection, schedule: Q01DX009 (ip), vehicle: saline
[9] = dose: 50.0 mg/kg/injection, schedule: Q01DX009 (ip), vehicle: saline
[10] = dose: 100.0 mg/kg/injection, schedule: Q01DX009 (ip), vehicle: saline
[11] = dose: 100.0 mg/kg/injection, schedule: Q04DX003 (ip), vehicle: Klucel (hydroxypropylcellulose) (HPC)
[12] = dose: 200.0 mg/kg/injection, schedule: Q04DX003 (ip), vehicle: Klucel (hydroxypropylcellulose) (HPC)
[13] = dose: 400.0 mg/kg/injection, schedule: Q04DX003 (ip), vehicle: Klucel (hydroxypropylcellulose) (HPC)
[14] = dose: 50.0 mg/kg/injection, schedule: Q01DX009 (ip), vehicle: saline with Tween-80
[15] = dose: 100.0 mg/kg/injection, schedule: Q01DX009 (ip), vehicle: saline with Tween-80
[16] = dose: 50.0 mg/kg/injection, schedule: Q04DX003 (ip), vehicle: saline with Tween-80
[17] = dose: 100.0 mg/kg/injection, schedule: Q04DX003 (ip), vehicle: saline with Tween-80
[18] = dose: 200.0 mg/kg/injection, schedule: Q04DX003 (ip), vehicle: saline with Tween-80

**Q.** What does the source list for `O=C(/C(=C/c1ccccc1)CBr)c1ccccc1`?
**A.** T/C (dose: 1.6 mg/kg/injection, schedule: Q01DX009 (ip), vehicle: Klucel (hydroxypropylcellulose) (HPC)): 109 % of control; T/C (dose: 3.1 mg/kg/injection, schedule: Q01DX009 (ip), vehicle: Klucel (hydroxypropylcellulose) (HPC)): 100 % of control; T/C (dose: 6.25 mg/kg/injection, schedule: Q01DX009 (ip), vehicle: Klucel (hydroxypropylcellulose) (HPC)): 104 % of control; T/C (dose: 12.5 mg/kg/injection, schedule: Q01DX009 (ip), vehicle: Klucel (hydroxypropylcellulose) (HPC)): 86 % of control; T/C (dose: 12.5 mg/kg/injection, schedule: Q04DX003 (ip), vehicle: Klucel (hydroxypropylcellulose) (HPC)): 104 % of control; T/C (dose: 25.0 mg/kg/injection, schedule: Q01DX009 (ip), vehicle: Klucel (hydroxypropylcellulose) (HPC)): 86 % of control; T/C (dose: 25.0 mg/kg/injection, schedule: Q04DX003 (ip), vehicle: Klucel (hydroxypropylcellulose) (HPC)): 95 % of control; T/C (dose: 50.0 mg/kg/injection, schedule: Q04DX003 (ip), vehicle: Klucel (hydroxypropylcellulose) (HPC)): 95 % of control

**Q.** How did the T/C (dose: 50.0 mg/kg/injection, schedule: Q01DX009 (ip), vehicle: Klucel (hydroxypropylcellulose) (HPC)) turn out when `O=C(Nc1ccc(F)cc1F)Oc1cccc2cccnc12` was run?
**A.** 104 % of control

**Q.** What about the T/C [1] of the same molecule?
**A.** 106 % of control

**Q.** And the T/C [2]?
**A.** 113 % of control

**Q.** And the T/C [3]?
**A.** 104 % of control

**Q.** For `CC(=O)C1=C(O)C2(O)C(=O)c3c(c(C)c4ccc(C)c(O)c4c3O)CC2C(N)C1=O` (configuration not stated), which T/C (dose: 1.56 mg/kg/injection, schedule: Q01DX009 (ip), vehicle: saline with Tween-80) is on record?
**A.** 109 % of control

**Q.** What about the T/C (dose: 3.13 mg/kg/injection, schedule: Q01DX009 (ip), vehicle: saline with Tween-80) of the same molecule?
**A.** 104 % of control

**Q.** What about the T/C [4] of the same molecule?
**A.** 118 % of control

**Q.** Which results are given for `c1ccc(Nc2ncc3cnccn23)cc1`?
**A.** T/C [5]: 95 % of control; T/C [6]: 105 % of control; T/C [7]: 92 % of control; T/C (dose: 100.0 mg/kg/injection, schedule: Q04DX003 (ip), vehicle: saline): 103 % of control; T/C (dose: 200.0 mg/kg/injection, schedule: Q04DX003 (ip), vehicle: saline): 97 % of control and 101 % of control; T/C (dose: 300.0 mg/kg/injection, schedule: Q04DX003 (ip), vehicle: saline): 115 % of control

**Q.** With `COc1cc2c(cc1OC)C(=O)CN(S(=O)(=O)c1ccc(C)cc1)CC2` as the molecule, how does the T/C [8] read?
**A.** 95 % of control

**Q.** What about the T/C [9] of the same molecule?
**A.** 104 % of control

**Q.** What about the T/C [10] of the same molecule?
**A.** 104 % of control

**Q.** And the T/C [11]?
**A.** 100 % of control

**Q.** What about the T/C [12] of the same molecule?
**A.** 95 % of control

**Q.** And the T/C [13]?
**A.** 95 % of control

**Q.** How did the T/C (dose: 10.0 mg/kg/injection, schedule: Q01DX009 (ip), vehicle: saline with Tween-80) turn out when `CN1CCN(c2ccc([N+](=O)[O-])c3no[n+]([O-])c23)CC1` was run?
**A.** 166 % of control

**Q.** And the T/C (dose: 20.0 mg/kg/injection, schedule: Q01DX009 (ip), vehicle: saline with Tween-80)?
**A.** 169 % of control

**Q.** `CC1(C)CC(=O)C=C(NCc2ccccc2)C1` was tested. Which T/C (dose: 37.5 mg/kg/injection, schedule: Q01DX009 (ip), vehicle: Klucel (hydroxypropylcellulose) (HPC)) did it give?
**A.** 100 % of control

**Q.** And the T/C (dose: 75.0 mg/kg/injection, schedule: Q01DX009 (ip), vehicle: Klucel (hydroxypropylcellulose) (HPC))?
**A.** 100 % of control

**Q.** And the T/C (dose: 150.0 mg/kg/injection, schedule: Q01DX009 (ip), vehicle: Klucel (hydroxypropylcellulose) (HPC))?
**A.** 100 % of control

**Q.** Which T/C (dose: 12.5 mg/kg/injection, schedule: Q01DX009 (ip), vehicle: saline) does the source give for `C[n+]1cccc2ccccc21` here?
**A.** 95 % of control

**Q.** What about the T/C [5] of the same molecule?
**A.** 104 % of control

**Q.** And the T/C [8]?
**A.** 100 % of control and 105 % of control

**Q.** And the T/C [6]?
**A.** 104 % of control

**Q.** What about the T/C [9] of the same molecule?
**A.** 100 % of control and 110 % of control

**Q.** And the T/C [7]?
**A.** 109 % of control

**Q.** What about the T/C [10] of the same molecule?
**A.** 109 % of control

**Q.** Which T/C [14] does the source give for `Cc1ccc(S(=O)(=O)Nc2ccccc2)c(CC(O)(c2ccccc2)c2ccccc2)c1` here?
**A.** 90 % of control

**Q.** And the T/C [15]?
**A.** 95 % of control

**Q.** How did the T/C (dose: 25.0 mg/kg/injection, schedule: Q01DX009 (ip), vehicle: other) turn out when `CCOC(=O)c1ccc(NC(=O)Nc2nc(C)cs2)cc1` was run?
**A.** 103 % of control

**Q.** And the T/C (dose: 100.0 mg/kg/injection, schedule: Q01DX009 (ip), vehicle: other)?
**A.** 99 % of control

**Q.** `CCn1c(C)nc2cc(C(N)=O)ccc21` was tested. Which T/C [16] did it give?
**A.** 95 % of control

**Q.** What about the T/C [17] of the same molecule?
**A.** 90 % of control

**Q.** What about the T/C [18] of the same molecule?
**A.** 113 % of control

**Q.** With `C[N+](C)(CC(=O)Nc1ccc(Cl)c(Cl)c1)Cc1ccc(Cl)c(Cl)c1` as the molecule, how does the T/C [4] read?
**A.** 120 % of control

**Q.** What about the T/C (dose: 12.5 mg/kg/injection, schedule: Q01DX009 (ip), vehicle: saline with Tween-80) of the same molecule?
**A.** 108 % of control

**Q.** Which results are given for `O=C(Nc1ccc(Nc2ccncc2)cc1)c1ccc(Nc2ccnc3ccc([N+](=O)[O-])cc23)cc1`?
**A.** T/C [1]: 90 % of control; T/C [11]: 100 % of control; T/C [2]: 90 % of control; T/C [12]: 100 % of control; T/C [3]: 95 % of control; T/C [13]: 90 % of control

**Q.** `O=[N+]([O-])c1ccc(N2CCN(CCO)CC2)c2nonc12` was tested. Which T/C (dose: 15.0 mg/kg/injection, schedule: Q01DX009 (ip), vehicle: saline with Tween-80) did it give?
**A.** 100 % of control

**Q.** And the T/C (dose: 25.0 mg/kg/injection, schedule: Q04DX003 (ip), vehicle: saline with Tween-80)?
**A.** 97 % of control

**Q.** And the T/C (dose: 30.0 mg/kg/injection, schedule: Q01DX009 (ip), vehicle: saline with Tween-80)?
**A.** 97 % of control

**Q.** And the T/C [16]?
**A.** 96 % of control

**Q.** For `CC(O)c1nc(N)nc(N)c1-c1ccc(Cl)cc1` (configuration not stated), which T/C (dose: 100.0 mg/kg/injection, schedule: Q01DX001 (ip), vehicle: saline with Tween-80) is on record?
**A.** 106 % of control

**Q.** What about the T/C (dose: 200.0 mg/kg/injection, schedule: Q01DX001 (ip), vehicle: saline with Tween-80) of the same molecule?
**A.** 100 % of control

**Q.** How did the T/C (dose: 25.0 mg/kg/injection, schedule: Q01DX009 (ip), vehicle: saline with Tween-80) turn out when `O=C(NC(=O)c1c(F)cccc1F)Nc1cccc(C(F)(F)F)c1` was run?
**A.** 97 % of control

**Q.** And the T/C [14]?
**A.** 99 % of control

**Q.** And the T/C [15]?
**A.** 97 % of control

**Q.** Which T/C (dose: 0.88 mg/kg/injection, schedule: Q01DX009 (ip), vehicle: saline) does the source give for `C=C1C(=O)O[C@@H]2C[C@@H](C)[C@@H]3C=CC(=O)[C@@]3(C)[C@@H](O)[C@H]12` here?
**A.** 109 % of control

**Q.** And the T/C (dose: 1.3 mg/kg/injection, schedule: Q01DX009 (ip), vehicle: saline)?
**A.** 113 % of control

**Q.** What about the T/C (dose: 2.0 mg/kg/injection, schedule: Q01DX009 (ip), vehicle: saline + alcohol) of the same molecule?
**A.** 116 % of control

**Q.** What about the T/C (dose: 4.0 mg/kg/injection, schedule: Q01DX010 (ip), vehicle: other) of the same molecule?
**A.** 116 % of control

**Q.** And the T/C (dose: 5.0 mg/kg/injection, schedule: Q01DX009 (ip), vehicle: saline + alcohol)?
**A.** 116 % of control

**Q.** What about the T/C (dose: 5.0 mg/kg/injection, schedule: Q01DX009 (ip), vehicle: saline with Tween-80) of the same molecule?
**A.** 109 % of control

**Q.** And the T/C (dose: 5.0 mg/kg/injection, schedule: Q01DX010 (ip), vehicle: other)?
**A.** 112 % of control

**Q.** What about the T/C (dose: 6.0 mg/kg/injection, schedule: Q01DX010 (ip), vehicle: other) of the same molecule?
**A.** 116 % of control

**Q.** What about the T/C (dose: 8.0 mg/kg/injection, schedule: Q01DX009 (ip), vehicle: alcohol) of the same molecule?
**A.** 163 % of control

**Q.** What about the T/C (dose: 8.0 mg/kg/injection, schedule: Q01DX009 (ip), vehicle: saline + alcohol) of the same molecule?
**A.** 168 % of control

**Q.** What about the T/C (dose: 8.0 mg/kg/injection, schedule: Q01DX010 (ip), vehicle: other) of the same molecule?
**A.** 116 % of control

**Q.** How did the T/C (dose: 50.0 mg/kg/injection, schedule: Q01DX005 (ip), vehicle: saline with Tween-80) turn out when `Cc1c(N)c2ccccc2c(=O)n1C` was run?
**A.** 92 % of control

**Q.** And the T/C (dose: 100.0 mg/kg/injection, schedule: Q01DX005 (ip), vehicle: saline with Tween-80)?
**A.** 97 % of control

**Q.** And the T/C (dose: 200.0 mg/kg/injection, schedule: Q01DX005 (ip), vehicle: saline with Tween-80)?
**A.** 106 % of control

**Q.** With `O=C1CC2c3ccccc3C1C1C(=O)OC(=O)C21` (configuration not stated) as the molecule, how does the T/C [11] read?
**A.** 104 % of control

**Q.** What about the T/C [12] of the same molecule?
**A.** 90 % of control

**Q.** What does the source list for `CCN(CC)C(=O)C1=NNc2ccc(Cl)cc2C(=O)N1C`?
**A.** T/C [17]: 100 % of control; T/C [18]: 109 % of control; T/C (dose: 400.0 mg/kg/injection, schedule: Q04DX003 (ip), vehicle: saline with Tween-80): 97 % of control

Reference: PubChem BioAssay AID328 (DTP/NCI, 2004)
